# Read-outs that look alike come from different tables or passages of the source.
# Key:
# KIT(V559DT670I) = target: T1, KIT(V559DT670I) (Homo sapiens, UniProt P10721, T670I/V559D); assay: kinome scan; format: binding; settings: 10 µM
# T1 construct: purchased DiscoverX (KINOMEscan)
# TAOK1 = target: T2, TAOK1 (Homo sapiens, UniProt Q7L7X3); assay: kinome scan; format: binding; settings: 10 µM
# T2 construct: purchased DiscoverX (KINOMEscan)
# AKT3 = target: T3, AKT3 (Homo sapiens, UniProt Q9Y243); assay: kinome scan; format: binding; settings: 10 µM
# T3 construct: purchased DiscoverX (KINOMEscan)
# FLT3(ITD) = assay: kinome scan; format: binding, human; settings: 10 µM
# [1] = target: T4, RSK4(Kin.Dom.2-C-terminal) (Homo sapiens, UniProt Q9UK32); assay: kinome scan; format: binding; settings: 10 µM
# T4 construct: RSK4(Kin.Dom.2-C-terminal); purchased DiscoverX (KINOMEscan)
# T4 sequence (Q9UK32 426-683 limits assumed): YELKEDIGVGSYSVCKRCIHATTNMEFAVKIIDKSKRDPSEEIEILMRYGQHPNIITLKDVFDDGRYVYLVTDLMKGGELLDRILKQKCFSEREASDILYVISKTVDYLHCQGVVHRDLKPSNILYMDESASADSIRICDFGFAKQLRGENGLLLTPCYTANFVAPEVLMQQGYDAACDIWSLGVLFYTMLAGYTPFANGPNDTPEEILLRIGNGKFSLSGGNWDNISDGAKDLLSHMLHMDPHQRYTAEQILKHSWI
# MEK2 = target: T5, MEK2 (Homo sapiens, UniProt P36507); assay: kinome scan; format: binding; settings: 10 µM
# T5 construct: purchased DiscoverX (KINOMEscan)
# TESK1 = target: T6, TESK1 (Homo sapiens, UniProt Q15569); assay: kinome scan; format: binding; settings: 10 µM
# T6 construct: purchased DiscoverX (KINOMEscan)
# MAP3K4 = target: T7, MAP3K4 (Homo sapiens, UniProt Q9Y6R4); assay: kinome scan; format: binding; settings: 10 µM
# T7 construct: purchased DiscoverX (KINOMEscan)
# T7 sequence (Q9Y6R4 whole entry): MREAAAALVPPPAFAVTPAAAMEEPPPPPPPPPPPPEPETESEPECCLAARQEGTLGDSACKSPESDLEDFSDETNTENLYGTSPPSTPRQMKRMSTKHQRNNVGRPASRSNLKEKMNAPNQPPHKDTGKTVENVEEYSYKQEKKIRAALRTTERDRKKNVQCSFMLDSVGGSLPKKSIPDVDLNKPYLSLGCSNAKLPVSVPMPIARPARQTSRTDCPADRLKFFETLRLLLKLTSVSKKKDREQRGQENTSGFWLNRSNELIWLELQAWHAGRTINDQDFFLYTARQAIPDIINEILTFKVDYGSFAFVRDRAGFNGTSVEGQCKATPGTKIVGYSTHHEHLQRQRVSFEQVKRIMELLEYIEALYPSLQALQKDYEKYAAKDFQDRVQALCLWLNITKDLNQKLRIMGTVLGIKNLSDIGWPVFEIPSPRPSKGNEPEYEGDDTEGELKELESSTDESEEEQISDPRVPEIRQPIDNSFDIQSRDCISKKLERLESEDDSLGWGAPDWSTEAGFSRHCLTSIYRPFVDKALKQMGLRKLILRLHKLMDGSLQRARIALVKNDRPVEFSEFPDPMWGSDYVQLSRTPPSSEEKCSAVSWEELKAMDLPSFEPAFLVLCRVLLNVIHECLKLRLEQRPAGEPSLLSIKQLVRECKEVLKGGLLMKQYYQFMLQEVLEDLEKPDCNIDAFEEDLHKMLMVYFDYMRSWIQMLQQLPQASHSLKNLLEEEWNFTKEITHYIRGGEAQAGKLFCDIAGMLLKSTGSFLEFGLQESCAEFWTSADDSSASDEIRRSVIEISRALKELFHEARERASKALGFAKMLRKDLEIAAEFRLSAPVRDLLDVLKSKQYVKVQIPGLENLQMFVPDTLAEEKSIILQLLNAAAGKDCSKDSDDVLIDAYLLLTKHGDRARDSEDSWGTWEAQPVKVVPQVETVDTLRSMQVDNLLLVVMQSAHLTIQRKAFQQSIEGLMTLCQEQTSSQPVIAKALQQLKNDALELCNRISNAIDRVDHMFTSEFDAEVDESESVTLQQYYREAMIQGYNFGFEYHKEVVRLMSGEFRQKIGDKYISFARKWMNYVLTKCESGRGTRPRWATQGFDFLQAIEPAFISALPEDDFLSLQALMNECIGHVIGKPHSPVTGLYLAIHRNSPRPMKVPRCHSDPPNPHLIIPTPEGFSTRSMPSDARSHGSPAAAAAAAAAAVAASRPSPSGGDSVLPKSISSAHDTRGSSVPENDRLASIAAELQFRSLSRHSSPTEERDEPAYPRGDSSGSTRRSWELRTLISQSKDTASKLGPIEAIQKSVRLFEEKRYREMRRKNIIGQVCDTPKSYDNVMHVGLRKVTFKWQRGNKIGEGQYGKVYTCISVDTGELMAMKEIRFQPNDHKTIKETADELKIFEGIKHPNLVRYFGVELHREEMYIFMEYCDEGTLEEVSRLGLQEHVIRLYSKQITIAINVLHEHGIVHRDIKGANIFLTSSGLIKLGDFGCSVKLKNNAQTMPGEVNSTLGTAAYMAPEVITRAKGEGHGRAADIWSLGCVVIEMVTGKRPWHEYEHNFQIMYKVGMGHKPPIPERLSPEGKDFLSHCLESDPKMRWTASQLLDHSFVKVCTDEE
# ACVR2A = target: T8, ACVR2A (Homo sapiens, UniProt P27037); assay: kinome scan; format: binding; settings: 10 µM
# T8 construct: purchased DiscoverX (KINOMEscan)
# ALK = target: T9, ALK (Homo sapiens, UniProt Q9UM73); assay: kinome scan; format: binding; settings: 10 µM
# T9 construct: purchased DiscoverX (KINOMEscan)
# CAMKK2 = target: T10, CAMKK2 (Homo sapiens, UniProt Q96RR4); assay: kinome scan; format: binding; settings: 10 µM
# T10 construct: purchased DiscoverX (KINOMEscan)
# DYRK2 = target: T11, DYRK2 (Homo sapiens, UniProt Q92630); assay: Kd select analysis (DiscoverX); format: binding
# T11 construct: purchased DiscoverX (KINOMEscan)
# T11 sequence (Q92630 1-601): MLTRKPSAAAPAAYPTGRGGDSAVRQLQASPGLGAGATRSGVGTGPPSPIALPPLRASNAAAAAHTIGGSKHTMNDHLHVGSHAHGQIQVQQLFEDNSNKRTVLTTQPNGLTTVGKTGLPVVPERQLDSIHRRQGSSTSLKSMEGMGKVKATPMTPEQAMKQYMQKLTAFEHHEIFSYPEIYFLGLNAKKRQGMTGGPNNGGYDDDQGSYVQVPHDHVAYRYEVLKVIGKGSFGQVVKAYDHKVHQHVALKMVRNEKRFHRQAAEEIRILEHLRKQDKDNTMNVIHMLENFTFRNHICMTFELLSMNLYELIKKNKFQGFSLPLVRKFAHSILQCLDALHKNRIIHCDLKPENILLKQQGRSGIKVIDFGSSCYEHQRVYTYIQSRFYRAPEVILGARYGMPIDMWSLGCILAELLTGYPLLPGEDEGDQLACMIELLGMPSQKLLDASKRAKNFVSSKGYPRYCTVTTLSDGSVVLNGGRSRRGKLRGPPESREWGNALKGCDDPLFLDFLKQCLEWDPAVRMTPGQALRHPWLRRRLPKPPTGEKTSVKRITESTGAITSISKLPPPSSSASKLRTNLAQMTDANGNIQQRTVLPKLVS
# Method: (§1) Hits are identified by an ultra-sensitive quantitative PCR detecting the specific DNA tag linked to each kinase (Supplementary Figure S2). The drug is used at a concentration of 10 µM and results are expressed as the percentage of signal (kinase PCR detection) with respect to DMSO control conditions. Thirteen hits were identified, with a signal reduction ranging from 0 to 27% (Table 3). Full raw data are presented in Supplementary Table S4. Interactions between 0 and 20% of reduction were considered to be the most significant ones. […] A sub-micromolar affinity (Kd<1 µM) was only seen with two PIKs (PIP4K2C, PI4KB) and GAK (Table 4). Inhibitions curves from these compounds are shown in Supplementary Figure S3.
# RIOK2 = target: T12, RIOK2 (Homo sapiens, UniProt Q9BVS4); assay: Kd select analysis (DiscoverX); format: binding
# T12 construct: T7 phage fusion (kinase-tagged phage); purchased DiscoverX; host or cells: BL21-derived E. coli (T7 phage)
# Method: as §1
# PIP4K2C = target: T13, PIP4K2C (Homo sapiens, UniProt Q8TBX8); assay: Kd select analysis (DiscoverX); format: binding
# T13 construct: T7 phage fusion (kinase-tagged phage); purchased DiscoverX; host or cells: BL21-derived E. coli (T7 phage)
# T13 sequence (Q8TBX8 whole entry, the tested form may be a part): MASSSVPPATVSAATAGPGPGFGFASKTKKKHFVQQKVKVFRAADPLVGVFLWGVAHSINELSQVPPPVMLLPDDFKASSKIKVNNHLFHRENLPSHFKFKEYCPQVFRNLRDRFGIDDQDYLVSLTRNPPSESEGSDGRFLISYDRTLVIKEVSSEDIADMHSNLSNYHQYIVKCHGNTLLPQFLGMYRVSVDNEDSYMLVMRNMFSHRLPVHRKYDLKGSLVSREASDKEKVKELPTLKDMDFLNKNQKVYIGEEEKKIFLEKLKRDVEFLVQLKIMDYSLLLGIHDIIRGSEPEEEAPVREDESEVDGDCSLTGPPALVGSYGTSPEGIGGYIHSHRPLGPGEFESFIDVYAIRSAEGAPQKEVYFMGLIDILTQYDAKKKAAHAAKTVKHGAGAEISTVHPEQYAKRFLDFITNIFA
# Method: as §1
# ANKK1 = target: T14, ANKK1 (Homo sapiens, UniProt Q8NFD2); assay: Kd select analysis (DiscoverX); format: binding
# T14 construct: purchased DiscoverX (KINOMEscan)
# T14 sequence (Q8NFD2 1-765): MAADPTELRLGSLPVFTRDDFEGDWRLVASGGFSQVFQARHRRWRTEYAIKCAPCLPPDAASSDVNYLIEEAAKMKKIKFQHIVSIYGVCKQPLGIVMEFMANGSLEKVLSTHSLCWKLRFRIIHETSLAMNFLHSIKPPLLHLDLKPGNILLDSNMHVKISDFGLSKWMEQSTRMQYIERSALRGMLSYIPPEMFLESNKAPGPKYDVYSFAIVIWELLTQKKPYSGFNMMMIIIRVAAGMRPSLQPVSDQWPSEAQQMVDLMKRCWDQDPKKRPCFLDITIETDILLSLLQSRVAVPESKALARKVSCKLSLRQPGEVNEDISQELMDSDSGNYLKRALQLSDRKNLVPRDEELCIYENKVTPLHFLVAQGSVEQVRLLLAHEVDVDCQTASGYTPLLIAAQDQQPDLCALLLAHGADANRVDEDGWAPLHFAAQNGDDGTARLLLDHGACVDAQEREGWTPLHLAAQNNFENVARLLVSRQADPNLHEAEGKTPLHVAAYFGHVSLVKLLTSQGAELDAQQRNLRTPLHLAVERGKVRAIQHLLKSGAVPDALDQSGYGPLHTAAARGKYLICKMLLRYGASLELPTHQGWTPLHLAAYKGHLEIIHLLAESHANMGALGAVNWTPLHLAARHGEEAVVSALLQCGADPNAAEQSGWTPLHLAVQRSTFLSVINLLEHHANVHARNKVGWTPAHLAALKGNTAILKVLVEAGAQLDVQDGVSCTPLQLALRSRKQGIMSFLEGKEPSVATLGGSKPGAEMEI
# Method: as §1
# MKNK2 = target: T15, MKNK2 (Homo sapiens, UniProt Q9HBH9); assay: Kd select analysis (DiscoverX); format: binding
# T15 construct: purchased DiscoverX (KINOMEscan)
# T15 sequence (Q9HBH9 whole entry): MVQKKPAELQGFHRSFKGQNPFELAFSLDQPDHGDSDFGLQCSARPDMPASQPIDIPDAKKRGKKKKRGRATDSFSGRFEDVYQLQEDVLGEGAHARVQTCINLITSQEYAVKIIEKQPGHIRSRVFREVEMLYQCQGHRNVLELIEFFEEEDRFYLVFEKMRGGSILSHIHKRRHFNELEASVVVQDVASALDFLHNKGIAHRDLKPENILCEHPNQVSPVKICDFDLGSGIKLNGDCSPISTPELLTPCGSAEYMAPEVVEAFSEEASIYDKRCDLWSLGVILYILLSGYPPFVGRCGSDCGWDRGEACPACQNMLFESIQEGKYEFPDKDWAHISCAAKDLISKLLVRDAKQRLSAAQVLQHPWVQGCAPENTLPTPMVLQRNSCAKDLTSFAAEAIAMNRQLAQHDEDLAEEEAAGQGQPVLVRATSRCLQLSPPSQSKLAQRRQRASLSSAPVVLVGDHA
# Method: as §1
# PI4KB = target: T16, PI4KB (Homo sapiens, UniProt Q9UBF8); assay: Kd select analysis (DiscoverX); format: binding
# T16 construct: T7 phage fusion (kinase-tagged phage); purchased DiscoverX; host or cells: BL21-derived E. coli (T7 phage)
# T16 sequence (Q9UBF8 whole entry, the tested form may be a part): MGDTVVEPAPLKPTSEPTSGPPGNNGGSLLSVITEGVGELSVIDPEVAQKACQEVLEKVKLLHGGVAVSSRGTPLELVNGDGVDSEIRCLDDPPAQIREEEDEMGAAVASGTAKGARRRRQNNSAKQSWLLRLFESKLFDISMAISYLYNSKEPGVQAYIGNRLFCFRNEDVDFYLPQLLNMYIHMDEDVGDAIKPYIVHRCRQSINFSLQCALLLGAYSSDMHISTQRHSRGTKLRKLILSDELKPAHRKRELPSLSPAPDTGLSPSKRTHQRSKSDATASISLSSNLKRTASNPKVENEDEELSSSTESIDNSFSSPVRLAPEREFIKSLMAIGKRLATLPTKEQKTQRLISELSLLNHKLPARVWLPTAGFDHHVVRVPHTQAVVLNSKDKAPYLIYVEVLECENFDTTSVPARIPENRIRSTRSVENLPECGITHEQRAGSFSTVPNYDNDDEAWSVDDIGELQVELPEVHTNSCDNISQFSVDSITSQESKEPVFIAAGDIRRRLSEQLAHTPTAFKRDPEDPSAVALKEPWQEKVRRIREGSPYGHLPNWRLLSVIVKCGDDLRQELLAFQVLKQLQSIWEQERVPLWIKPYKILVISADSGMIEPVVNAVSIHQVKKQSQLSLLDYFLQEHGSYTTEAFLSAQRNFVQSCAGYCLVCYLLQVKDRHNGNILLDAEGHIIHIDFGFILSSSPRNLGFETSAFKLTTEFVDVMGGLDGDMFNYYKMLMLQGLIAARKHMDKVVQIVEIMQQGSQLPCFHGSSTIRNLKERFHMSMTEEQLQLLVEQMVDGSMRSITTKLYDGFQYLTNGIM
# Method: as §1
# PIK3CA(H1047L) = target: T17, PIK3CA(H1047L) (Homo sapiens, UniProt P42336, H1047L); assay: kinome scan; format: binding; settings: 10 µM
# T17 construct: purchased DiscoverX (KINOMEscan)
# PDGFRB = target: T18, PDGFRB (Homo sapiens, UniProt P09619); assay: kinome scan; format: binding; settings: 10 µM
# T18 construct: purchased DiscoverX (KINOMEscan)
# T18 sequence (P09619 33-1106): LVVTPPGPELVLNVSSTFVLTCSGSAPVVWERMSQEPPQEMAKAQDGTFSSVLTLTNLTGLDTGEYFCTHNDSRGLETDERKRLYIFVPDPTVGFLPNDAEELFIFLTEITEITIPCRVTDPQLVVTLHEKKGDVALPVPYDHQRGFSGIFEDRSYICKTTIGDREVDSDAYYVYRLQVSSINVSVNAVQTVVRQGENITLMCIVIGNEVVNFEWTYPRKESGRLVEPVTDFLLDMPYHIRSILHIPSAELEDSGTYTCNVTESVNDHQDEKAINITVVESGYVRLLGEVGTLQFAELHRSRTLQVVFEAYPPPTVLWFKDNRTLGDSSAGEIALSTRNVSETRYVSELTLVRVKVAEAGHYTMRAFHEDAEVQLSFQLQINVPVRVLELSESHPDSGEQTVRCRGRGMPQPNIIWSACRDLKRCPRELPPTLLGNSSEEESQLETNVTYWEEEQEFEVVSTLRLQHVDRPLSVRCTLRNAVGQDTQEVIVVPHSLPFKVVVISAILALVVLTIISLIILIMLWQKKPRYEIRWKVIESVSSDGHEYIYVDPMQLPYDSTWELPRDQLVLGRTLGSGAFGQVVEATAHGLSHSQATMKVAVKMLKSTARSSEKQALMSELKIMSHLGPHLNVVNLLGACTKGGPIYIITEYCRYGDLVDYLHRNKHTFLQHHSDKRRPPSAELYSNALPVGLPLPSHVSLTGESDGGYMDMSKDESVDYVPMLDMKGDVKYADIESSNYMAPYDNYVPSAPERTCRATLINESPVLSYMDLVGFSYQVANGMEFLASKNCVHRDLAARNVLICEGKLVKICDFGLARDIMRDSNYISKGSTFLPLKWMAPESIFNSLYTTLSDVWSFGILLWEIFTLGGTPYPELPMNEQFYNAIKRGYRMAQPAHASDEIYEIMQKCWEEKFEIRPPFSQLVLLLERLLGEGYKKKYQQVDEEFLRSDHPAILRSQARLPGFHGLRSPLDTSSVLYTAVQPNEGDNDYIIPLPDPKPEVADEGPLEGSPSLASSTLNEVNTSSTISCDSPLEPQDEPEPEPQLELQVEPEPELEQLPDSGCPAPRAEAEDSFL
# PIK3CA(H1047Y) = target: T19, PIK3CA(H1047Y) (Homo sapiens, UniProt P42336, H1047Y); assay: kinome scan; format: binding; settings: 10 µM
# T19 construct: purchased DiscoverX (KINOMEscan)
# [2] = sub-micromolar affinity, read-out: Kd
# T1 sequence (P10721 544-976 V559D/T670I limits assumed): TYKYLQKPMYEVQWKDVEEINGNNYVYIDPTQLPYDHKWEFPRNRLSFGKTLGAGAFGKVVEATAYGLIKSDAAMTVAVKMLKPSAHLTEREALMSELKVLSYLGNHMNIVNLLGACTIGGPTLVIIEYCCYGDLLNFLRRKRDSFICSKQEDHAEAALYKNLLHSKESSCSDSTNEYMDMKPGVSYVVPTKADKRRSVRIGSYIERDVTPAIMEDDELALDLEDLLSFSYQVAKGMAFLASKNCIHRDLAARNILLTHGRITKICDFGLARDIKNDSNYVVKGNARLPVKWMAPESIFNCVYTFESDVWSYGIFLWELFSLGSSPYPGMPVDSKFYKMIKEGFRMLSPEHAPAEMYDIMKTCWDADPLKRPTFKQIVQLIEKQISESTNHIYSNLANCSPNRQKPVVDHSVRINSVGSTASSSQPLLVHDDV
compound,measurement,setting,value
"Nc1ccc(N=Nc2ccccc2)c(N)n1 [phenazopyridine, 2,6-diamino-3-(phenylazo)pyridine]",kinase inhibition,KIT(V559DT670I),71
same,kinase inhibition,TAOK1,93
same,kinase inhibition,AKT3,92
same,remaining binding (% of control),FLT3(ITD),55
same,kinase inhibition,[1],81
same,kinase inhibition,MEK2,83
same,kinase inhibition,TESK1,100
same,kinase inhibition,MAP3K4,100
same,kinase inhibition,ACVR2A,94
same,kinase inhibition,ALK,89
same,kinase inhibition,CAMKK2,99
same,Kd,DYRK2,5000 nM
same,Kd,RIOK2,1000 nM
same,Kd,PIP4K2C; Phenazopyridine Kd (nM),540 nM
same,Kd,PIP4K2C; [2],< 1000 nM
same,Kd,ANKK1,21000 nM
same,Kd,MKNK2,2100 nM
same,Kd,PI4KB; Phenazopyridine Kd (nM),730 nM
same,Kd,PI4KB; [2],< 1000 nM
same,kinase inhibition,PIK3CA(H1047L),80
same,kinase inhibition,PDGFRB,44
same,kinase inhibition,PIK3CA(H1047Y),100

# From PMC8371461 (Frontiers in Pharmacology, 2021)
